{"source": "paper doi:10.1101/2025.11.04.686469", "about": "“Discovery of Host-Directed Small Molecules with Broad Anti-Leishmanial Efficacy” (bioRxiv, 2025)", "key": {"[1]": {"test": "Effect of compounds on host cell viability (MTT)", "assay_type": "cell-based", "conditions": "human", "method_in_brief": "(§1)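 THP-1 cells were differentiated with 150 nM PMA for 72 h, then exposed to compounds at 1–50 μM for 24 h; selected compounds were also run at 1–300 μM for 72 h. MTT at 0.5 mg/mL was added for 2 h at 37 °C, and formazan absorbance was read at 560 nm minus 670 nm.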"}, "THP-1 macrophages": {"system": "THP-1 macrophages", "test": "Effect of compounds on host cell viability (MTT)", "assay_type": "cell-based", "method_in_brief": "as §1"}, "[2]": {"system": "intracellular L. donovani amastigotes", "test": "Image-based (Giemsa staining) evaluation of intracellular anti-leishmanial activity in bone marrow derived macrophages", "assay_type": "cell-based, Leishmania donovani", "conditions": "Leishmania donovani, Macrophage", "method": "Bone marrow derived macrophages (BMDMs) were isolated from BALB/c mice and cultured as previously described. […] Completely differentiated BMDMs are obtained after 7 days of culture with media change every 2 days. Harvested cells were seeded onto 10 mm glass cover slips at 5 x 10^5 cells/ well of a 24 well plate in DMEM media (without LCM) and allowed to adhere overnight. […] After infection, cells were washed three times with fresh media to remove extracellular promastigotes and treated with compounds for a 72-hour incubation. BMDM cells were then washed with phosphate buffered saline, fixed with ice-cold methanol, and stained with Giemsa (5% v/v in water). The cover slips with stained cells are mounted onto glass slides and imaged on EVOS XL (100X, Thermo Fisher Scientific). Leishmania amastigotes per 100 macrophages were determined in a blinded manner."}, "[3]": {"system": "extracellular L. mexicana promastigotes", "test": "Effect of compounds on promastigote viability (resazurin assay)", "assay_type": "cell-based, Leishmania mexicana", "method": "The effect of compounds on extracellular promastigotes was evaluated using a resazurin-based assay as described previously. In short, late log phase Leishmania promastigotes were seeded in a 96 well plate at 1 x 10^5 parasites per well and treated with drugs (0.5 – 200 μM) for 72 hours at 25°C. Ten microliters of resazurin (0.02% w/v) were added to the treated parasites to achieve a final concentration of 0.002% w/v and incubated for 24 hours. Viability of the promastigotes was assessed by fluorescence (excitation 544 nm, emission 590 nm, SpectraMax M2, Molecular Devices)."}, "[4]": {"system": "intracellular L. mexicana amastigotes", "test": "microbe, parasite or virus in culture", "assay_type": "cell-based, Leishmania mexicana", "conditions": "bone marrow derived macrophages, Giemsa staining", "method": "Bone marrow derived macrophages (BMDMs) were isolated from BALB/c mice and cultured as previously described. Briefly, bone marrow was harvested from long bones of mice and the isolated cells were seeded at a concentration of 2 x 10^6 cells/mL in petri dishes with RPMI media supplemented with 10% FBS, 1% Penn-Strep and 10% L929 conditioned media (LCM). Completely differentiated BMDMs are obtained after 7 days of culture with media change every 2 days. Harvested cells were seeded onto 10 mm glass cover slips at 5 x 10^5 cells/ well of a 24 well plate in DMEM media (without LCM) and allowed to adhere overnight. BMDM cells are then infected overnight with LV82 L. donovani or L. mexicana (NR-51210) at a multiplicity of infection of 10. After infection, cells were washed three times with fresh media to remove extracellular promastigotes and treated with compounds for a 72-hour incubation. BMDM cells were then washed with phosphate buffered saline, fixed with ice-cold methanol, and stained with Giemsa (5% v/v in water). The cover slips with stained cells are mounted onto glass slides and imaged on EVOS XL (100X, Thermo Fisher Scientific). Leishmania amastigotes per 100 macrophages were determined in a blinded manner."}, "lysozyme": {"target": "T1, lysozyme (Homo sapiens, UniProt P61626)", "T1 construct": "endogenous in cells; host or cells: THP-1 cells differentiated with PMA and infected with L. mexicana promastigotes; cell lysate", "T1 sequence (P61626 19-148)": "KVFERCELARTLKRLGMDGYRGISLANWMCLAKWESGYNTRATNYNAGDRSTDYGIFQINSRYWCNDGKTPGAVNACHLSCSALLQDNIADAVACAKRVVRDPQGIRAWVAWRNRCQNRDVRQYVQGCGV", "test": "Affinity capture with 197-bead in Leishmania infected macrophage lysate", "assay_type": "binding", "conditions": "197-bead vs control bead", "method": "To generate cell lysate, ten million THP-1 cells were plated overnight in a 10cm dish, then differentiated with 150 nM phorbol 12-myristate 13-acetate (PMA) for 72 hours. The resulting macrophages were infected with L. mexicana promastigotes at a multiplicity of infection of 1:10 and incubated for 18 hours. After infection, cells were washed three times with PBS to remove extracellular promastigotes. Cells were then collected by scraping and pelleted with centrifugation. The cell pellet was resuspended in cell buffer (50mM Tris-HCl, 150mM NaCl, 2mM EDTA, 0.5% triton-x-100) and subjected to five freeze-thaw cycles. Samples were centrifuged 14,000g x 10 minutes to remove cellular debris. Protein concentration of supernatant was determined by BCA assay and cell lysate was stored at −80°C until further use.\nFunctionalized agarose beads were made as follows. NHS activated agarose beads were washed three times to remove acetone and resuspended in PBS to create a slurry. 494 (197 with ligation chemical handle) was prepared in 0.3 mL at 25mM in DMSO and 1.7 mL PBS was added to 1 mL of agarose slurry for a final volume of 3 mL at a concentration of 2.5mM (10% v/v DMSO). […]\n500 μg cell lysate was incubated with 200 μL slurry at a final volume of 1 mL for 1 hr. […] Peptides were extracted, acidified, desalted using C18 spin columns, and analyzed by LC-MS/MS using Thermo Easy nLC 1200-QExactive HF. […]"}}, "note": "Read-outs that look alike come from different tables or passages of the source.", "data": [{"smiles": "O=C(CNCc1cccc(F)c1)Nc1ccc(-n2cc(C(F)(F)F)nc2-c2ccc(-c3ccc(C(F)(F)F)cc3)cc2)cc1", "note": "[Compound 197]", "values": [{"measurement": "CC50 at 24 h", "setting": "[1]", "result": "> 50000", "unit": "nM"}, {"measurement": "CC50 at 72 h", "setting": "[1]", "result": "> 300000", "unit": "nM"}, {"measurement": "CC50", "setting": "THP-1 macrophages", "result": "> 300000", "unit": "nM"}, {"measurement": "reduction in macrophage viability", "setting": "THP-1 macrophages; 72hr incubation up to 300μM", "result": "Neither compound had any reduction"}, {"measurement": "IC50", "setting": "[2]; 72 h, Giemsa staining, 72-hour incubation, read-out: Intracellular L. donovani amastigotes IC50", "result": 1100, "unit": "nM"}, {"measurement": "IC50", "setting": "[2]; Giemsa staining (Table 3), read-out: L. donovani Intracellular amastigotes IC50", "result": "< 2000", "unit": "nM"}, {"measurement": "effect on L. mexicana extracellular promastigote viability", "setting": "[3]", "result": "no effect"}, {"measurement": "MIC50", "setting": "[3]; Leishmania mexicana, 72-hour incubation", "result": "> 200", "unit": "µM"}, {"measurement": "IC50", "setting": "[4]; Leishmania mexicana, Macrophage", "result": "< 2000", "unit": "nM"}, {"measurement": "IC50", "setting": "[4]", "result": 1700, "unit": "nM"}, {"measurement": "affinity capture abundance of lysozyme, Log2 fold change", "setting": "lysozyme", "result": 6.57}]}]}
